According to patent US12281098B2, “Five-membered-fused six-membered compound, preparation method, pharmaceutical composition and use” (HANGZHOU POLYMED BIOPHARMACEUTICALS, INC., priority 2021, dated 2025):
Like-named read-outs stand apart in the source and are kept apart here.

Experiments:
IRAK4 kinase = biological target: T1, IRAK4 kinase (Homo sapiens, UniProt Q9NWZ3); assay: Compound inhibition of IRAK4 kinase activity (fluorescence microfluidic mobility shift assay); assay type: biochemical; settings: 10 μM ATP, 6 nM IRAK4 kinase
T1 construct: purchased Carna 09-145
T1 sequence (Q9NWZ3 1-460): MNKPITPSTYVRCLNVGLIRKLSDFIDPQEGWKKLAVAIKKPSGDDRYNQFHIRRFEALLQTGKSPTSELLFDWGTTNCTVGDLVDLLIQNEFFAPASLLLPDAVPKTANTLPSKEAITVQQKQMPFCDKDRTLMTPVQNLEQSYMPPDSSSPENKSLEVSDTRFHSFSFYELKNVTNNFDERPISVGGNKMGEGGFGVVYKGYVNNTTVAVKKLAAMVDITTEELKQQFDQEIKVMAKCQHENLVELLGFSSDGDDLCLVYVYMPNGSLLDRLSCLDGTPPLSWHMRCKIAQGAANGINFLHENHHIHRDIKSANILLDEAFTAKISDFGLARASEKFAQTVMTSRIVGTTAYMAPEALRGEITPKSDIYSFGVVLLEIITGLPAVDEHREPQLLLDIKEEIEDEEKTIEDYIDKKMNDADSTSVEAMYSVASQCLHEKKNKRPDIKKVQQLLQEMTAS
Description: Based on the experimental method of fluorescence microfluidic mobility shift assay, the IC50 value of the compound for competitive binding of ATP to IRAK4 kinase was determined. The initial detection concentration of the compound was 10 μM, which was 4-fold serially diluted to 0.38 nM and assayed in duplicate. In this case, commercially available staurosporine was the standard control for the assay.
1) IRAK4 kinase was dissolved in kinase buffer (50 mM HEPES pH 7.5, 10 mM MgCl2, 2 mM DDT, and 0.01% Brij-35) at a final concentration of 6 nM.
2) The substrate peptide FAM-P8 and ATP were dissolved in the above kinase buffer, and the final concentrations of the substrate peptide FAM-P8 and ATP for IRAK4 were 3 μM and 10 μM, respectively.
3) Compound dilution: The compound was first diluted to 50 μM, and then 4-fold serially diluted with DMSO. In this case, the solution without compound and kinase served as the blank control, corresponding to the “minimum value” shown below; the solution without compound but containing kinase, adenosine 5′-triphosphate disodium salt hydrate, DMSO, and the buffer served as the positive control, corresponding to the “maximum value” shown below.
4) Kinase reaction and termination: 10 μL of the kinase buffer was added to a 384-well plate containing 5 μL of the compound to be tested, and the mixture was incubated at room temperature for 10 minutes; another 10 μL of buffer containing the substrate peptide and adenosine 5′-triphosphate disodium salt hydrate was added to the 384-well plate, and after incubation at 28° C. for 1 hour, 25 μL of termination solution (100 mM HEPES pH 7.5, 50 mM EDTA, 0.2% Coating Reagent #3, and 0.015% Brij-35) was added to each well to terminate the reaction.
5) Data reading: CaliperEZ Reader II instrument was used to read the conversion rate data. Setting conditions: downstream voltage as −500 V, upstream voltage as −2250 V, base pressure as −0.5 PSI, and screening pressure as −1.2 PSI.
6) Data calculation: the conversion rate data was copied from CaliperEZ Reader II, and the conversion rate was converted into inhibition rate data. The calculation formula is as follows: Inhibition percentage (%)=(maximum value−conversion rate)/(maximum value−minimum value)*100%
IC50 values were fitted with XLFit excel add-in version 5.4.0.8.

[1] = biological target: T2, IRAK4 protein in THP-1 cells (Homo sapiens, UniProt Q9NWZ3); assay: IRAK4 protein degradation in THP-1 induced by PROTAC (Western Blot); assay type: cell-based; settings: Table 6, estimated bins, GAPDH internal reference
T2 construct: endogenous in cells; host or cells: THP-1
T2 sequence (Q9NWZ3 1-460): T1 sequence (Q9NWZ3 1-460)
Description: 3.1. Based on the experimental method of immunoblot, i.e., Western Blot, THP-1 cell samples processed by gel electrophoresis were stained with specific antibodies, and the degradation activity of the compounds on the IRAK4 protein in THP-1 cells was determined by analyzing the position of the staining and the depth of the staining. The detection concentrations of the compounds were 0 μM, 0.3 μM, 1 μM, and 3 μM, and the compounds were used to treat the cells for 8 hours, 16 hours, 24 hours, and 48 hours. In this case, glyceraldehyde-3-phosphate dehydrogenase (GAPDH) was the internal reference protein for the assay.
THP-1 cells were spread into a 6-well plate at a density of 1.5×10^6 cells per mL, and incubated in a 37° C. cell culture incubator with 5% CO2 for 2 hours. The compound was diluted with DMSO to 0.6 mM, 0.2 mM, and 0.06 mM, respectively. 10 μL of compound solution was added to the corresponding wells, and the plate was incubated in the incubator for 16 hours, 24 hours, and 48 hours, respectively. The drug-treated THP-1 cells were collected from the wells, added with 120 μL of RIPA lysis buffer containing protease inhibitor, phosphatase inhibitor cocktail 2, and phosphatase inhibitor cocktail 3, and lysed on wet ice for 30 minutes. The cell lysate was then centrifuged at low temperature and high speed for 5 minutes, and the supernatant was collected. Referring to the instructions in the Pierce™ BCA Protein Assay Kit, the cell samples were tested for protein concentration.
The samples were adjusted to the same concentration using lysis buffer and NuPAGE® LDS sample buffer containing 1 M DTT. The samples were heated at 95° C. for 5 minutes and centrifuged at low temperature and high speed. 20 μL of prepared protein sample and 4 μL of PageRuler Prestained Protein Ladder were added to the gel wells. The mixture was electrophoresed at a voltage of 80 V for 0.5 hours, and then electrophoresed for another 1.5 hours after the voltage was adjusted to 120 V. The gel was removed and proteins in the gel were transferred to IBlot™ 2 Transfer Stack at a voltage of 20V. After successful membrane transfer, the bands were cut out at 65 kDa to 40 kDa and 40 kDa to 30 kDa, respectively. The membrane was blocked with 5% non-fat milk at room temperature for 1 hour. The membrane was washed three times with 1×TBST, and incubated with IRAK4 antibody working solution at 4° C. overnight. The IRAK4 antibody working solution was discarded, and the membrane was washed three times with 1×TBST. After the corresponding membrane was incubated with Goat Anti-Rabbit IgG H&L (HRP) working solution and Goat Anti-Mouse IgG H&L (HRP) working solution at room temperature for 1 hour, the antibody working solutions were discarded, and the membrane was washed three times with 1×TBST. Referring to the instructions in the SuperSignal™ West Femto Maximum Sensitivity Substrate Kit, the reagents in the kit were mixed in equal volume proportions to prepare a luminescent mixture, and the membrane was incubated for 1 minute and removed for exposure.
WB assay: The results 24 hours after administration at 1 μM were divided into estimated <25%, <50%, <75%, and <100%.

THP-1 cells = assay: LPS-stimulated cytokine (TNFα) release in THP-1; assay type: cell-based, Human; settings: LPS 100 ng/mL, 5 hours, TNF-α ELISA, read-out: Inhibition IC50 (nM) of cytokines (TNFα) against LPS-stimulated inflammatory responses in THP-1 cells
Description: THP-1 cells were cultured in suspension in RPMI 1640 complete medium (containing 10% serum, 1% penicillin-streptomycin, and 55 μM β-mercaptoethanol). THP-1 cells were collected, centrifuged at 350×g at room temperature to discard the supernatant, and resuspended in RPMI 1640 complete medium to a concentration of 2×10^6 cells per mL. THP-1 cells were spread into a 96-well plate at a concentration of 2×10^5 cells per well, and different concentrations of the compound to be tested were added thereto. The plate was incubated in a 37° C. cell culture incubator with 5% CO2 for 60 minutes. 50 μL of LPS at a final concentration of 100 ng/mL was added to a 96-well plate, and incubated in a 37° C. cell culture incubator for 5 hours. The cell culture plate was then taken out from the incubator, and centrifuged at 350×g at low temperature for 5 minutes to collect 150 μL of the supernatant. Referring to the instructions in the Human TNF-α Duoset ELISA Kit, the level of TNF-α in the cell culture supernatant was detected.
Data on the inhibitory activity of cytokines (TNFα) against LPS-stimulated inflammatory responses in THP-1 cells are shown in Tables 3 and 4.

Row | Structure (SMILES) | IC50 (IRAK4 kinase; Table 2) [µM] | Western Blot results 24 hours after administration at a drug concentration of 1 μM [1] [%] | IC50 (THP-1 cells; Homo sapiens, THP-1, Table 4) [nM] | IC50 (IRAK4 kinase; Table 1) [µM] | IC50 (THP-1 cells; Homo sapiens, THP-1, Table 3) [nM] | IC50 (THP-1 cells; Table 4) [nM]
1 | COc1cc2nn(CCN3CC4CCC(C3)N4CC(=O)N3CCC4(CC3)CCN(c3cccc5c3C(=O)N(C3CCC(=O)NC3=O)C5=O)CC4)cc2cc1NC(=O)c1cccc(C(F)(F)F)n1 (stereo not drawn) [III-54] | < 0.1 | <25 |  |  |  | 
2 | COc1cc2nn(CCN3CCN(c4ccc(OCC#Cc5cccc6c5C(=O)N(C5CCC(=O)NC5=O)C6=O)cc4)CC3)cc2cc1NC(=O)c1cccc(C(F)(F)F)n1 (stereo not drawn) [III-69] | 0.1 to 1 | <25 |  |  |  | 
3 | COc1cc2nn(CCN3CCN(CC(=O)N4CC5(CC(CC(=O)N[C@H](C(=O)N6C[C@H](O)C[C@H]6C(=O)N[C@@H](C)c6ccc(-c7scnc7C)cc6)C(C)(C)C)C5)C4)CC3)cc2cc1NC(=O)c1cccc(C(F)(F)F)n1 [III-31] | < 0.1 |  | 1000 to 10000 | < 0.1 |  | 
4 | COc1cc2nn(CCN3CCN(CC(=O)N4CCC5(CCC(N[C@H](C(=O)N6C[C@H](O)C[C@H]6C(=O)N[C@@H](C)c6ccc(-c7scnc7C)cc6)C(C)(C)C)CC5)CC4)C3=O)cc2cc1NC(=O)c1cccc(C(F)(F)F)n1 [III-35] | < 0.1 |  | 100 to 1000 |  |  | 
5 | CC(C)(O)c1cc2nn(CCN3CCN(CC(=O)NCCCCNc4cccc5c4C(=O)N(C4CCC(=O)NC4=O)C5=O)C3=O)cc2cc1NC(=O)c1cccc(C(F)(F)F)n1 (stereo not drawn) [III-10] | 0.1 to 1 |  |  | 0.1 to 1 | 1000 to 10000 | 1000 to 10000
6 | CC(C)(O)c1cc2nn(CCN3CCN(CC(=O)NCCOCCOCCNc4cccc5c4C(=O)N(C4CCC(=O)NC4=O)C5=O)C3=O)cc2cc1NC(=O)c1cccc(C(F)(F)F)n1 (stereo not drawn) [III-2] | 0.1 to 1 |  |  | 0.1 to 1 | ≥ 10000 | ≥ 10000
7 | COc1cc2c(cc1NC(=O)c1cccc(C(F)(F)F)n1)CN(CCC(C)(C)C(=O)N1CCC3(CCC(C(=O)N[C@H](C(=O)N4C[C@H](O)C[C@H]4C(=O)N[C@@H](C)c4ccc(-c5scnc5C)cc4)C(C)(C)C)CC3)CC1)C2=O [III-26] | < 0.1 |  |  | < 0.1 | 1000 to 10000 | 1000 to 10000
8 | CC(C)(O)c1cc2nn(CCN3CCN(CC(=O)N4CC5(C4)CN(c4cccc6c4C(=O)N(C4CCC(=O)NC4=O)C6=O)C5)CC3)cc2cc1NC(=O)c1cccc(C(F)(F)F)n1 (stereo not drawn) [III-63] | < 0.1 | <25 |  |  |  | 
9 | COc1cc2nn(CCN3CCN(CC(=O)N4CCC5(CCC(C(=O)N[C@H](C(=O)N6C[C@H](O)C[C@H]6C(=O)N[C@@H](C)c6ccc(-c7scnc7C)cc6)C(C)(C)C)CC5)CC4)CC3)cc2cc1NC(=O)c1cccc(C(F)(F)F)n1 [III-29] | < 0.1 |  | 1000 to 10000 | < 0.1 |  | 

Second part, the compound after the results:

Row | IC50 (IRAK4 kinase; Table 2) [µM] | Western Blot results 24 hours after administration at a drug concentration of 1 μM [1] [%] | IC50 (THP-1 cells; Homo sapiens, THP-1, Table 4) [nM] | IC50 (IRAK4 kinase; Table 1) [µM] | IC50 (THP-1 cells; Homo sapiens, THP-1, Table 3) [nM] | IC50 (THP-1 cells; Table 4) [nM] | Structure (SMILES)
10 | < 0.1 |  | 1000 to 10000 |  |  |  | COc1cc2nn(CCN3CCN(CC(=O)N4CCC5(CC4)CCN(c4ncc(Nc6cccc7c6C(=O)N(C6CCC(=O)NC6=O)C7=O)cn4)CC5)CC3)cc2cc1NC(=O)c1cccc(C(F)(F)F)n1 (stereo not drawn) [III-30]
11 | 0.1 to 1 |  |  | 0.1 to 1 | 100 to 1000 | 100 to 1000 | COc1cc2c(cc1NC(=O)c1cccc(C(F)(F)F)n1)CN(CC(=O)N1CCC3(CC1)CCN(c1cccc4c1C(=O)N(C1CCC(=O)NC1=O)C4=O)CC3)C2=O (stereo not drawn) [III-24]
12 | < 0.1 | <25 |  |  |  |  | COc1cc2nn(CCN3CCN(c4cccc5c4C(=O)N(C4CCC(=O)NC4=O)C5=O)CC3)cc2cc1NC(=O)c1cccc(C(F)(F)F)n1 (stereo not drawn) [III-39]
13 | < 0.1 | <25 |  |  |  |  | COc1cc2c(cc1NC(=O)c1cccc(C(F)(F)F)n1)CN(CCC(C)(C)C(=O)NC1CCN(c3cccc4c3C(=O)N(C3CCC(=O)NC3=O)C4=O)CC1)C2=O (stereo not drawn) [III-41]
14 | 0.1 to 1 |  |  | 0.1 to 1 | 1000 to 10000 | 1000 to 10000 | COc1cc2c(cc1NC(=O)c1cccc(C(F)(F)F)n1)CN(CCC(C)(C)C(=O)N1CCC3(CC1)CCN(c1cccc4c1C(=O)N(C1CCC(=O)NC1=O)C4=O)CC3)C2=O (stereo not drawn) [III-25]
15 | 0.1 to 1 |  | 1000 to 10000 | 0.1 to 1 |  |  | CC(C)(O)c1cc2nn(CCN3CCN(CC(=O)N4CCC5(CC4)CCN(c4cccc6c4C(=O)N(C4CCC(=O)NC4=O)C6=O)CC5)C3=O)cc2cc1NC(=O)c1cccc(C(F)(F)F)n1 (stereo not drawn) [III-11]
16 | < 0.1 | <25 |  |  |  |  | COc1cc2nn(CCN3CCN(CC(=O)N4CCC5(CCC(Oc6cccc7c6C(=O)N(C6CCC(=O)NC6=O)C7=O)CC5)CC4)CC3)cc2cc1NC(=O)c1cccc(C(F)(F)F)n1 (stereo not drawn) [III-56]
